Reference: patent publication US20040209906A1, “Composition comprising ketanserin AND AN ALKANOYL L-CARNITINE FOR THE TREATMENT OF CRPS” (Sigma-Tau industrie Farmaceutiche Riunite S.p.A., priority 1998, published 2004)

Legend:
CRPS [1] = settings: in vivo; cited from earlier work
CRPS [2] = settings: ketanserin alone; cited from earlier work
CRPS patients = assay: intravenous ketanserin treatment of CRPS patients (bolus plus infusion); assay type: in vivo
Experimental: All i.v. treatments were performed after at least 15 minutes of acclimatisation at constant temperature (20-23° C.). The temperature of the affected limb was recorded with Hewlett Packard electro-skin probe between digit 4 and 5. In addition continues photoplethysmograpy of the affected hand (digit 2) or foot (digit 1), blood pressure and hearth rate were recorded. All patients received a bolus of 10 mg of ketanserin i.v. in a running saline infusion. Ketanserin administration was continued by rate of 4 mg per hour.

[3] = after the intravenous treatment with ketanserin

Structure (SMILES) | efficacy of therapeutic treatment in CRPS (CRPS [1]) | therapeutic result for symptoms caused by hyperpathia and allodinia (CRPS [1]) | treatment of CRPS symptoms (CRPS [2]) | skin temperature (CRPS patients; [3]) | symptom of small vein (CRPS patients; [3]) | peripheral circulation of the affected limb (CRPS patients; all patients, after the intravenous treatment with ketanserin (10 mg bolus, then 4 mg per hour))
C[S+](C)[O-] [dimethyl sulfoxide] | efficacious only during acute CRPS | without any therapeutic result | – | – | – | –
O=C(c1ccc(F)cc1)C1CCN(CCn2c(=O)[nH]c3ccccc3c2=O)CC1 [ketanserin] | – | – | possible to treat most of symptoms, but not those caused by hyperpathia and allodinia | normalised | disappeared | normalised
